“Also recorded” adds a separate entry of the source. Like-named read-outs stand apart in the source and are kept apart here.
What was measured:
[1] = ICP measurement of Gd(III) ion concentration in organs with time; assay type: in vivo, mice; design: unit not given here
Description: (§1) To study the contrasting effect of the MRI contrast agent according to the present invention, six-week-old male ICR mice (weight=29-31 g) were used for the in vivo study. The mice were anesthetized by 1.5% isoflurane in oxygen and treated with gadolinium complex (5c) of the present invention at amount of 0.1 mmol of Gd/kg. After the treatment, the mouse was revived from anesthesia and placed in the cage with free access to food and water. The animals were maintained at approximately 37° C. using a warm water blanket.
The excretion via the bile duct was further confirmed by measuring the concentration of Gd(III) ions with time through inductively coupled plasma (ICP) measurement. At 6 h after the injection, the Gd(III) ions were detected in the intestine, confirming that they are excreted via the liver and the bile duct.

[2] = Relaxation times (T1, T2) and relaxivities (R1, R2) at 1.5 T; assay type: physicochemical
Description: T1 measurements were carried out using an inversion recovery method with a variable inversion time (TI) at 1.5 T. The MR images were acquired at 35 different TI values ranging from 50 to 1750 ms. T1 relaxation times were obtained from the nonlinear least-squares fit of the signal intensity measured at each T1 value. For T2 measurements the CPMG (Carr-Purcell-Meiboon-Gill) pulse sequence was adapted for multiple spin-echo measurements. Thirty-four images were acquired with 34 different echo time (TE) values. T2 relaxation times were obtained from the nonlinear least-squares fit of the mean pixel values for the multiple spin-echo measurements at each echo time. Relaxivities were then calculated as an inverse (R=1/s·mM) of relaxation time per mM. The determined relaxation times and relaxivities are finally transformed to a phantom map. The phantom images were obtained with the same concentration of Dotarem® and gadolinium complexes or comparative purposes. […] Table 2 summarizes the relaxation times and relaxivities for gadolinium complexes of the present invention along with other Gd-complexes.

[3] = test system: ICR mice; assay: In vivo MRI test; conditions: 0.1 mmol of Gd/kg
Description: as §1
MR images were taken with 1.5 T (GE Healthcare, Milwaukee, Wis., USA) equipped with a homemade small animal RF coil. The coil was of the receiver type with its inner diameter being 50 mm. The imaging parameters for 3D fast SPGR (spoiled GRASS images) are as follows: repetition time (TR)=8.8 ms; echo time (TE)=3.9 ms; 10 mm field of view (FOV); 256×192 matrix size; 1.0 mm slice thickness; number of acquisition (NEX)=4. The imaging parameters for spin-echo are as follows: TR=500 ms; TE=13 ms; 6 mm FOV; 192×128 matrix size; 1.5 mm slice thickness; NEX=4. Each image was taken with an interval of 3 min and 16 s. […] For analysis of the obtained MR images, signal intensities in specific regions of interest (ROI) were measured using Advantage Window software (GE Medical, USA). The CNR was calculated using Equation 3, where SNR is the signal-to-noise ratio. […]

[4] = 20 MHz, 298 K; cited from earlier work
[5] = Transmetalation kinetics: evolution of paramagnetic relaxation rate R1P(t)/R1P(0) in presence of ZnCl2; assay type: physicochemical
Source text: […]. The relative value of R1^P at time t, R1^P(t)/R1^P(0), is therefore a good estimate of the extent of transmetalation. The evolution of R1^P(t)/R1^P(0) over time gives relevant information about the kinetics of the reaction, whereas the plateau value theoretically reached at t=∞ will reflect the thermodynamic aspect.
Accordingly, in order to investigate the transmetalation kinetics of the gadolinium complexes according to the present invention, the evolution of water proton relaxation rate (R1^P) of a phosphate-buffered solution (pH 7.4) containing 2.5 mmol/L of Gd-complex and 2.5 mmol/L of ZnCl2 with time was measured. To measure the change in the relaxation rate, 10 μL of a ZnCl2 solution (250 mmol/L) was added to 1 mL of a buffered solution of the Gd-complex and the mixture was vigorously stirred. The same experiment was performed with Dotarem®, Omniscan®, Multihance®, Primovist® and ethyl tranexamate (6) with zinc acetate for comparison. The measurement was made on a 3T whole body system (Magnetom Tim Trip; Simens, Germany) at room temperature.

[6] = reference values from ref. 8 or 9; cited from earlier work

In the case of `C=CCOC(=O)C1CCC(CNC(=O)CN2CCN(CC(=O)[O-])CCN(CC(=O)[O-])CCN(CC(=O)[O-])CC2)CC1.O.[Gd+3]` (centres unmarked) [Compound 5c], the “concentration of Gd(III) ions (ICP)” value ([1]; Bile duct, 6 h after injection) was 13.95, the “concentration of Gd(III) ions (ICP)” value ([1]; Blood, 1 h after injection) was 5.16 and the “concentration of Gd(III) ions (ICP)” value ([1]; Blood, 6 h after injection) was 0.12. The “concentration of Gd(III) ions (ICP)” value ([1]; Intestine, 6 h after injection) was 2.485, the “concentration of Gd(III) ions (ICP)” value ([1]; Kidney, 1 h after injection) was 65.17 and the “concentration of Gd(III) ions (ICP)” value ([1]; Kidney, 6 h after injection) was 68.22. For the same molecule, the “concentration of Gd(III) ions (ICP)” value ([1]; Kidney, 24 h after injection) was 10.89, the “concentration of Gd(III) ions (ICP)” value ([1]; Kidney, 48 h after injection) was 6.91 and the “concentration of Gd(III) ions (ICP)” value ([1]; Liver, 1 h after injection) was 62.09. For the same molecule, the “concentration of Gd(III) ions (ICP)” value ([1]; Liver, 6 h after injection) was 50.90, the “concentration of Gd(III) ions (ICP)” value ([1]; Liver, 24 h after injection) was 33.73 and the “concentration of Gd(III) ions (ICP)” value ([1]; Liver, 48 h after injection) was 35.90. For the same molecule, the “concentration of Gd(III) ions (ICP)” value ([1]; Liver, 72 h after injection) was 6.22, the “R1 value compared with commercially available contrast agents (in words)” value ([2]; 1.5 T) was “significantly higher R1 values than any of the clinically used contrast agents; also recorded: very high R1 values” and the R1 relaxivity ([2]; 1.5 T, mean value(±SD)) was 9.5 ± 0.12 mM⁻¹ s⁻¹. It also gave an R2 relaxivity ([2]; 1.5 T, mean value(±SD)) of 10.9 ± 0.03 mM⁻¹ s⁻¹, a T1 relaxation time ([2]; 1.5 T, mean value(±SD)) of 105.28 ± 1.33 ms and a T2 relaxation time ([2]; 1.5 T, mean value(±SD)) of 91.74 ± 0.25 ms. The “R1 value relative to that of Dotarem” value ([2]; ratio of R1 values) was 2.6 times, the “excretion pattern (MR images)” value [3] was “excreted slowly to the intestine via the bile duct through hepatobiliary uptake” and the “MR contrasting effect in the liver” value ([3]; 1.5 T) was “enhances contrast of the liver”.
In the case of `CNC[C@H](O)[C@@H](O)[C@H](O)[C@H](O)CO.CNC[C@H](O)[C@@H](O)[C@H](O)[C@H](O)CO.O=C([O-])CN(CCN(CC(=O)[O-])CC(=O)O)CCN(CC(=O)[O-])CC(=O)O.[Gd+3]` [Magnevist, (N-Me-glucamine)2[Gd(DTPA)(H2O)]], the magnetic relaxation rate [4] is given as “about 4.7 mM^−1s^−1”.
In the case of `CNC(=O)CN(CCN(CCN(CC(=O)[O-])CC(=O)NC)CC(=O)[O-])CC(=O)[O-].[Gd+3]` [Omniscan, [Gd(DTPA-bismethylamide)(H2O)]], the “paramagnetic relaxation rate retained, R1P(t)/R1P(0) (kinetic stability)” value ([5]; 72 hours, phosphate-buffered solution pH 7.4, 2.5 mmol/L Gd-complex and 2.5 mmol/L ZnCl2, room temperature, 3T) is listed as 30%, the “pattern of evolution of the paramagnetic relaxation rate R1P(t)/R1P(0) (in words)” value ([5]; phosphate-buffered solution pH 7.4, 2.5 mmol/L Gd-complex and 2.5 mmol/L ZnCl2, 72 hours) is listed as “drastic decrease in the rate” and the magnetic relaxation rate [4] is listed as “about 4.4 mM^−1s^−1”. The R1 relaxivity [6] was 4.9 ± 0.14 mM⁻¹ s⁻¹, the R2 relaxivity [6] was 3.4 ± 0.25 mM⁻¹ s⁻¹ and the T1 relaxation time [6] was 209.8 ± 5.82 ms. The T2 relaxation time [6] was 290.9 ± 21.02 ms.

Reference: patent US8901294B2, “MRI contrast agent having gadolinium complex” (priority 2010, dated 2014)
